Earlier results in patent US20140227392A1, “BEER AND RELEVANT PRODUCTION METHOD” (FARCHIONI OLII - S.P.A., priority 2011, published 2014).

Conditions: compared with its precursor daidzein

## Oc1ccc([C@H]2COc3cc(O)ccc3C2)cc1 [S-(−) equol]
  antioxidant activity: significantly greater in antioxidant activity than its precursor
